Like-named read-outs stand apart in the source and are kept apart here.
Experiments:
heart valves = settings: rats, all doses tested; cited from earlier work
[1] = rats; cited from earlier work
Human TGFβR-1 kinase = Human TGFβR-1 kinase (Homo sapiens (Human), UniProt P36897); assay: In vitro enzyme assay: inhibition of TGFβR-1 kinase activity (ADP-Glo); type: biochemical; settings: TGFβR-1 kinase, 50 μM ATP; read-out: IC50 range
Experimental: In Vitro Enzyme Assay: Inhibition of TGFβR-1Kinase Activity
Human TGFβl R-1 inhibition experiments were carried out in a white 384-microplate low flange (Corning 3572) with ADP-Glo kinase Assay Kit (Promega V9101) and TGβR-1 Kinase Enzyme System (Promega V4092). […] The reaction mixture was incubated in gentle shaking for 120 min at RT, after incubation of 10 μL of ADP-Glo Reagent was added and incubated in gentle shaking for 40 min at RT. 20 μL of Kinase Detection Reagent was added and plate was incubated in gentle shaking for 30 min at RT. Luminiscence (1000 ms) was measured in Perkin Elmer EnSpire Multimode plate reader.

TGF-beta kinase (ALK-5) = TGF-beta kinase (ALK-5) (Homo sapiens (Human), UniProt P36897); assay: Determination of the intracellular TGF-beta kinase activity (ALK-5), p-SMAD3 AlphaLISA in A549 cells; type: cell-based; settings: A549 cell line, TGF-β2 activated, p-SMAD3; read-out: IC50 range
Experimental: Determination of the Intracellular TGF-beta Kinase Activity (ALK-5)
The experiments were carried out in A549 cell line. 30000 cells were seeded in 200 μl of culture medium (Sigma D6046) supplemented with L-Glutamine (Sigma G7513), Penicillin/Streptomycin (Invitrogen 11058) and FBS (Sigma F9665) on a 96 wells microplate (Becton Dickinson 353072). After 16 hours medium waschanged to serum free medium.

[2] = Plasma pharmacokinetic assay, single oral administration; type: in vivo, male Sprague Dawley rats; settings: rat, P.O., 5 mg/kg
Experimental: Plasma Pharmacokinetic Assay
The objective of this study was to investigate the plasma pharmacokinetics of some compounds of the present invention in male Sprague Dawley rats following a single oral administration. Three rats per compound were used in this study. Animals were administered with suspension formulation of each compound in 0.5% Tween-80 and 99.5% NaCMC (0.5% w/v in RO Water) by oral route at 5 mg/kg. The blood samples were collected from set of three rats at each time point in labelled micro centrifuge tube containing K2EDTA solution as anticoagulant at 0.25, 0.5, 1, 2, 4, 6, 8, 12 and 24 hr (p.o.). Plasma samples were separated by centrifugation of whole blood and stored below −70±10° C. until bioanalysis. All samples were processed for analysis by protein precipitation using acetonitrile and analysed with fit-for-purpose LC-MS/MS method (LLOQ=1.01 ng/mL). Pharmacokinetic parameters were calculated using the non-compartmental analysis tool of Phoenix WinNonlin® (Version 7.0).

[3] = Metabolic stability assay, rat microsomes; type: in vitro ADME; settings: for microsomal CLint: rat recombinant microsomes (Tebu-Xenotech), pH 7.4
Experimental: (§1) Metabolic Stability Assay
(§2) Human and rat recombinant microsomes from Tebu-Xenotech were employed in the assay. They content 0.5 mg/ml of protein. The following quantities were added to each well of a 96-well microplate.
(§3) Plates were incubated at 37° C. and 75 μL samples were taken at 0, 10, 20, 40 and 60 minutes. Samples were transferred to a microplate and 75 μl Acetonitrile were added for inactivating the microsomes, and 30 μl of H2O for improving the chromatographic conditions and kept at 4° C. When all the samples were taken the plate was centrifuged at […] for 30 min at 15° C. Supernatant was taken and injected in the UPLC-MS/MS.
(§4) Stationary phase: Reverse phase Acquity UPLC® BEH C18 1.7 μm (2.1 mm×50 mm) (Waters). Mobile phase: A: 0.1% formic; B:acetonitrile+0.1% formic acid. Flow: 0.6 ml/min. The chromatographic equipment employed was an UPLC QSM Waters Acquity. Compound concentrations were calculated from the UV peak areas. The response was linear in the range between 10 ng/ml and 0.3125 ng/ml. Metabolic stability was calculated from the logarithm of the remaining compound at each of the times evaluated.
(§5) The data will be fitted to the one phase exponential decay equation using GraphPad Prism® software. The half-life (t1/2) generated by the software will be reported. Intrinsic clearance will be calculated using the formula where, k=decay rate constant (min^−1).

[4] = Metabolic stability assay, human microsomes; type: in vitro ADME; settings: for microsomal CLint: human recombinant microsomes (Tebu-Xenotech)
Experimental: as §1, §2, §3, §4, §5

[5] = Identification study of metabolite; type: in vitro ADME
Source text: In an identification study of metabolite was identified Compound A. Said compound is 2-(3-(6-methylpyridin-2-yl)-4-(quinolin-4-yl)-1H-pyrazol-1-yl)acetic acid and has the following formula: […]
Compound A was identified as the major metabolite of examples 9, 15, 20, 22, 24 and 26, among others.

ALK4 = ALK4 (Homo sapiens (Human), UniProt P36896); settings: cited from earlier work
MINK = MINK (Homo sapiens (Human), UniProt Q8N4C8); settings: cited from earlier work
TGFβRII = TGFβRII (Homo sapiens (Human), UniProt P37173); settings: cited from earlier work
ALK6 = ALK6 (Homo sapiens (Human), UniProt O00238); settings: cited from earlier work
ACVR2B = ACVR2B (Homo sapiens (Human), UniProt Q13705); settings: cited from earlier work
[6] = in vivo; cited from earlier work
[7] = rats; cited from earlier work; remark: listed apart in the source
[8] = dogs; cited from earlier work
myelofibrosis (MF) = settings: mouse models; cited from earlier work
human pancreatic cancer = settings: systemic administration; cited from earlier work
[9] = male, Sprague-Dawley, po, plasma

Sequence of Human TGFβR-1 kinase (P36897 34-503): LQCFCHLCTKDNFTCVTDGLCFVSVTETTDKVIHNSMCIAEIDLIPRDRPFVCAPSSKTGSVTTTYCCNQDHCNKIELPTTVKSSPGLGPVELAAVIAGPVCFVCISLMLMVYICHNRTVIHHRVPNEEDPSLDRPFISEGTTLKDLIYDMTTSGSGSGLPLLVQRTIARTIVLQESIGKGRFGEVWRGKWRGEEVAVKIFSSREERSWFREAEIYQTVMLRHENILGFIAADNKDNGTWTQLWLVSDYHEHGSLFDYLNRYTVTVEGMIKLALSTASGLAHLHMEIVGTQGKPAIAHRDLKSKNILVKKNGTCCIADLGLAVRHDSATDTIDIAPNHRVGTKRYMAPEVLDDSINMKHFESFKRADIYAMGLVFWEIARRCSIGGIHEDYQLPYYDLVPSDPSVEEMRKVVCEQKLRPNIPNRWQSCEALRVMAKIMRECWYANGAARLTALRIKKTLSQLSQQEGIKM
Sequence of TGF-beta kinase (ALK-5) (P36897 34-503): as above
Sequence of ACVR2B (Q13705 19-512, species assumed): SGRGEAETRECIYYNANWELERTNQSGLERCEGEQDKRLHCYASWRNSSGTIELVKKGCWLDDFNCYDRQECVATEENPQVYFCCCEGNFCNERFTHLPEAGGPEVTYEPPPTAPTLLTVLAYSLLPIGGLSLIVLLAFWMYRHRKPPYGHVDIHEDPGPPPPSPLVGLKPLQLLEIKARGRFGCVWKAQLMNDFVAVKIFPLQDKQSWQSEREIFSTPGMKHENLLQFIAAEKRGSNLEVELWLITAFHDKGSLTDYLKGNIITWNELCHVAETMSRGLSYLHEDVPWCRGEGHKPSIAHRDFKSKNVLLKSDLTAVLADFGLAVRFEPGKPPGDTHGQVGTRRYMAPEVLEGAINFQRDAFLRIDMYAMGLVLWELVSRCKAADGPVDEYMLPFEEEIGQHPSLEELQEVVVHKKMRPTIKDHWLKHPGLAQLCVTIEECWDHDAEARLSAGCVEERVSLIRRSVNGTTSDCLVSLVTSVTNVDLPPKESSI
Sequence of MINK (Q8N4C8 whole entry): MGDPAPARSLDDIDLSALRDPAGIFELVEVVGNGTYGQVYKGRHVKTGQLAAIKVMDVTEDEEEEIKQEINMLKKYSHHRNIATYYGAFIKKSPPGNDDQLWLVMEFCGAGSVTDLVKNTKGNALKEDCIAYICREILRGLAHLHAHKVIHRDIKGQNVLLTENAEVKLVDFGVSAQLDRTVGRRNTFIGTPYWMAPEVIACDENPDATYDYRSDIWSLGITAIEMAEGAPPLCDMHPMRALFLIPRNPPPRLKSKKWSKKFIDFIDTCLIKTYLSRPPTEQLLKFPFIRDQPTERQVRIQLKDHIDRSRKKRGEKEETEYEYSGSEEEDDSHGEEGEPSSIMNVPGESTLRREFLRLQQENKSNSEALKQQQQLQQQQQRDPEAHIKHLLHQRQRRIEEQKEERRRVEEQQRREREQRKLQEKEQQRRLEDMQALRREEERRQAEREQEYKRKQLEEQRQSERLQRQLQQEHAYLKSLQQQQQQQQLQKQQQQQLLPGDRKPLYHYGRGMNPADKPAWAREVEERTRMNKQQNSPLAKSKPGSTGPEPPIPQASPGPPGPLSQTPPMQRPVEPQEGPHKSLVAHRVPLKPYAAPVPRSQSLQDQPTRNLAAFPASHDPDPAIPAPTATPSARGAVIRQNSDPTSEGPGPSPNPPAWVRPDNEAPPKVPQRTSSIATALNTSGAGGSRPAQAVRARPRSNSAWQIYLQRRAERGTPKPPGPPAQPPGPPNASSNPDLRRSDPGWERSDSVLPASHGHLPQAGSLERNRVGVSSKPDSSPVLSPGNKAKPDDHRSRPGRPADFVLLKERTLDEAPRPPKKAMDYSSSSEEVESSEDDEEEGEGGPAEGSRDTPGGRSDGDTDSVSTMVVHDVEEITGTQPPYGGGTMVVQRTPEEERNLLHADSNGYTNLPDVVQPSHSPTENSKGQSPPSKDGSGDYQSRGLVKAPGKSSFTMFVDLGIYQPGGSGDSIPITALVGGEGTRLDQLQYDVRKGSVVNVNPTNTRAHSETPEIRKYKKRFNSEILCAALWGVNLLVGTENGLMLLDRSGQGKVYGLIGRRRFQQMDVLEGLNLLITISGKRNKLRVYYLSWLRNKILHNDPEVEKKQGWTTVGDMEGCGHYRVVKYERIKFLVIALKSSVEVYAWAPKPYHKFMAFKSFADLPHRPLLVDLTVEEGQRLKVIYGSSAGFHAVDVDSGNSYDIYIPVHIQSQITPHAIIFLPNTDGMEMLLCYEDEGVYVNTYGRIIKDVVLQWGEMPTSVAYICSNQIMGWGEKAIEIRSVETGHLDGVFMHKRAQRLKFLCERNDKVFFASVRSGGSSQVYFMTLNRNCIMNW
Sequence of ALK4 (P36896 24-505, species assumed): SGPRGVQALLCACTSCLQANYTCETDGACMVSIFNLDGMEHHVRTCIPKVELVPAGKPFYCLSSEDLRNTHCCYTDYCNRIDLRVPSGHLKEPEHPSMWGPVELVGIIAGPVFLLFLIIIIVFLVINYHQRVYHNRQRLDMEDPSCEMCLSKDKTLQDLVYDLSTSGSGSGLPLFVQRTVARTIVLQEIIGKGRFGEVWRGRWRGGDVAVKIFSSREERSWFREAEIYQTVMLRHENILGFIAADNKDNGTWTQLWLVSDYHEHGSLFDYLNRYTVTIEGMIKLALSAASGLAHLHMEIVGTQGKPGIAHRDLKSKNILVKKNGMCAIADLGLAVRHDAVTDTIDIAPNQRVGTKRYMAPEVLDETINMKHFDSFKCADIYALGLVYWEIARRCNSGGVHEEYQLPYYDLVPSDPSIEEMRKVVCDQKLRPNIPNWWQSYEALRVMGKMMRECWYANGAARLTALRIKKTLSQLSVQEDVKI
Sequence of TGFβRII (P37173 23-567): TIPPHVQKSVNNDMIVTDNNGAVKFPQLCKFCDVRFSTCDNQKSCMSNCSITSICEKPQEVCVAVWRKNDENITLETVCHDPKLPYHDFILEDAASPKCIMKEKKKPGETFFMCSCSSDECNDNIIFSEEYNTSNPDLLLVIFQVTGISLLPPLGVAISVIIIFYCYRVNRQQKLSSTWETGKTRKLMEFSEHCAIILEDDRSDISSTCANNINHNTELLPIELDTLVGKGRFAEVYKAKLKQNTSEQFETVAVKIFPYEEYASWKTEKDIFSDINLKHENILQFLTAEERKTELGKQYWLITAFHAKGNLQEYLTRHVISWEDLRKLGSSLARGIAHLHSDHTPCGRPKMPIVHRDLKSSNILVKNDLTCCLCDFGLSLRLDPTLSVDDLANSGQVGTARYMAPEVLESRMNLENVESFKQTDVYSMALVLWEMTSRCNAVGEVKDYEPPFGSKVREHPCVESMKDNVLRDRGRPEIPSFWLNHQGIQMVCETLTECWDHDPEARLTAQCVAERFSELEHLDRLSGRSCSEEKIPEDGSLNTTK
Sequence of ALK6 (O00238 14-502): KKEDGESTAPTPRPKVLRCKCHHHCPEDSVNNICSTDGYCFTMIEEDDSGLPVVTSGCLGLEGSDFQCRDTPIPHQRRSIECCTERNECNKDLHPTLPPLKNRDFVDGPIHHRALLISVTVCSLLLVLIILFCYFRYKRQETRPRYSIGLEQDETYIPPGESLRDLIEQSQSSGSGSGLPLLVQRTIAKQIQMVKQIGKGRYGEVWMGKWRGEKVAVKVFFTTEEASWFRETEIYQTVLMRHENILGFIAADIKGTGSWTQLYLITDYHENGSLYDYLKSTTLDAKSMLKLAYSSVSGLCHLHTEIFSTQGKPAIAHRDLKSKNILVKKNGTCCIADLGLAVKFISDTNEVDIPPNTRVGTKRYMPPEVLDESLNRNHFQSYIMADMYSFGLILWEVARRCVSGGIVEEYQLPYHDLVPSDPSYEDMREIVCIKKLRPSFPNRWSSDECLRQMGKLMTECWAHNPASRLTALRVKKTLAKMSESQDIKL

| IC50 (Human TGFβR-1 kinase) [nM] | IC50 (TGF-beta kinase (ALK-5)) [nM] | % remanent (sampling time 60 min) [3] [%] | microsomal CLint [3] [µL/min/mg] | % remanent (sampling time 60 min) [4] [%] | microsomal CLint [4] [µL/min/mg] | Major metabolite identified [5] | Compound | further results |
| --- | --- | --- | --- | --- | --- | --- | --- | --- |
|  |  |  |  |  |  |  | c1ccc(-c2nc3c(c(-n4ccc5cnccc54)n2)CCC3)nc1 [AZ12601011] | Histopathology finding in heart (heart valves): heart valve lesions |
|  |  |  |  |  |  |  | Cc1ccc(Oc2ccnc(Nc3ccc(S(N)(=O)=O)cc3)c2)c(C)n1 [AZ12799734] | Histopathology finding in heart (heart valves): heart valve lesions |
|  |  |  |  |  |  |  | Cc1cccc(-c2[nH]c(CNc3ccccc3F)nc2-c2ccc3ncnn3c2)n1 [EW-7197] | oral bioavailability [1]: 51% |
| < 100 | < 100 | 0.14 | 644 | 0.03 | 378 | Compound A | Cc1cccc(-c2nn(CC(=O)NCc3ccccc3Cl)cc2-c2ccnc3ccccc23)n1 [Example 22, N-(2-chlorobenzyl)-2-(3-(6-methylpyridin-2-yl)-4-(quinolin-4-yl)-1H-pyrazol-1-yl)acetamide] | AUC(0-inf) [2, 9]: 15.3 ng·h/mL; AUC(0-t) [2, 9]: 13.7 ng·h/mL; Cmax [2, 9]: 20 ng/mL; Tmax [2, 9]: 19.8 min |
| < 100 | < 100 | 0.01 | 360 | 0.05 | 307 | Compound A | Cc1cccc(-c2nn(CC(=O)NCc3c(F)cccc3F)cc2-c2ccnc3ccccc23)n1 [Example 24, N-(2,6-difluorobenzyl)-2-(3-(6-methylpyridin-2-yl)-4-(quinolin-4-yl)-1H-pyrazol-1-yl)acetamide] | Plasma concentrations quantifiable (PK parameters not calculable) ([2]; LLOQ 1.01 ng/mL): Concentrations were quantifiable only at 0.25 |
| < 100 | 100 to 500 | 0.08 | 826 | 0.05 | 622 | Compound A | Cc1cccc(-c2nn(CC(=O)NCc3c(C)cccc3C)cc2-c2ccnc3ccccc23)n1 [Example 26, N-(2,6-dimethylbenzyl)-2-(3-(6-methylpyridin-2-yl)-4-(quinolin-4-yl)-1H-pyrazol-1-yl)acetamide] |  |
|  |  |  |  |  |  |  | Cc1cccc(-c2nn3c(c2-c2ccnc4ccc(C(N)=O)cc24)CCC3)n1 [Galunisertib] | IC50 (ALK4): 770 nM; IC50 MINK (MINK): submicromolar; IC50 TGFβRII (TGFβRII): submicromolar; IC50 ALK6 (ALK6): submicromolar; IC50 ACVR2B (ACVR2B): submicromolar; oral bioavailability [6]: orally bioavailable; Major target organs for toxicity [7]: the heart and great vessels; Major target organs for toxicity [8]: the heart and great vessels; Effect on myelofibrosis (myelofibrosis (MF)): significantly improved MF |
|  |  |  |  |  |  |  | c1ccc(-c2nn3c(c2-c2ccnc4cc(OCCN5CCOCC5)ccc24)CCC3)nc1 [LY2109761] | Effect on metastasis (human pancreatic cancer): suppresses liver and other abdominal site metastasis |

Reference: patent US12297186B2, “Benzylamide derivatives as inhibitors of transforming growth factor-beta receptor I/ALK5” (AGOMAB SPAIN, S.L.U., priority 2019, dated 2025)
